Source: patent US20230107642A1 (Erasca, Inc., priority 2020, published 2023)

target: T1, K-Ras G12C (Homo sapiens, UniProt P01116, G12C); assay: CAF assay (% CAF; method in Example 7, not in this part); assay type: binding; conditions: 10 uM compound, 1 h incubation
T1 construct: This protein contained 188 amino acids in total, including an N-terminal 6-Histidine tag; made in house; host or cells: E. coli BL21

| % CAF @ 10 uM, 1h [%] | SMILES |
| --- | --- |
| 96.5 | C=CC(=O)N1C[C@H](C)N(c2nc(=O)n3c4c(c(-c5ccc(F)cc5F)c(C(F)(F)F)cc24)SC[C@@H]3COC)C[C@H]1C (atropisomer, axis not shown) [Example 509, (3S,10R)-7-((2S,5R)-4-acryloyl-2,5-dimethylpiperazin-1-yl)-10-(2,4-difluorophenyl)-3-(methoxymethyl)-9-(trifluoromethyl)-2,3-dihydro-5H-[1,4]thiazino[2,3,4-ij]quinazolin-5-one] |
| 55 | C=CC(=O)N1C[C@H](C)N(c2nc(=O)n3c4c(c(-c5cc(Cl)c(F)cc5F)c(Cl)cc24)SC[C@@H]3CN2CCn3c(nnc3C(F)(F)F)C2)C[C@H]1C [Example 448, (3S)-7-((2S,5R)-4-acryloyl-2,5-dimethylpiperazin-1-yl)-9-chloro-10-(5-chloro-2,4-difluorophenyl)-3-((3-(trifluoromethyl)-5,6-dihydro-[1,2,4]triazolo[4,3-a]pyrazin-7(8H)-yl)methyl)-2H-[1,4]thiazino[2,3,4-ij]quinazolin-5(3H)-one] |
| 96 | C=CC(=O)N1[C@H](C)CN(c2nc(=O)n3c4c(c(-c5cc(Cl)c(F)cc5F)c(C(F)(F)F)cc24)SC[C@H](OC)C3)C[C@@H]1C [Example 535, (3R)-8-((3S,5R)-4-acryloyl-3,5-dimethylpiperazin-1-yl)-11-(5-chloro-2,4-difluorophenyl)-3-methoxy-10-(trifluoromethyl)-3,4-dihydro-2H,6H-[1,4]thiazepino[2,3,4-ij]quinazolin-6-one] |

| SMILES | % CAF @ 10 uM, 1h [%] |
| --- | --- |
| C=CC(=O)N1C2CN(c3nc(=O)n4c5c(c(-c6ccc(F)cc6F)c(C(F)(F)F)cc35)SCC4)CC1CC1(COC1)C2 [Example 417, 7-(9-acryloyl-7,9-diazaspiro[bicyclo[3.3.1]nonane-3,3′-oxetan]-7-yl)-10-(2,4-difluorophenyl)-9-(trifluoromethyl)-2,3-dihydro-5H-[1,4]thiazino[2,3,4-ij]quinazolin-5-one] | 2 |

same assay, conditions: 10 uM, 1 h; Table 3

| % CAF @ 10 uM, 1h [%] | SMILES |
| --- | --- |
| 62.7 | C=CC(=O)N1CCN(c2nc(=O)n3c4c(c(-c5ccc(F)cc5F)c(Cl)cc24)SCC3)CC12CNC2=O (stereo not drawn) [Example 128, 7-(5-acryloyl-1-oxo-2,5,8-triazaspiro[3.5]nonan-8-yl)-9-chloro-10-(2,4-difluorophenyl)-2,3-dihydro-5H-[1,4]thiazino[2,3,4-ij]quinazolin-5-one] |
| 82 | C=CC(=O)N1CCN(c2nc(=O)n3c4c(c(-c5ccc(F)cc5F)c(Cl)cc24)SCC3)C[C@H]1C#N [Example 77, (2S)-1-acryloyl-4-(9-chloro-10-(2,4-difluorophenyl)-5-oxo-2,3-dihydro-5H-[1,4]thiazino[2,3,4-ij]quinazolin-7-yl)piperazine-2-carbonitrile] |
| 95.9 | C[C@H]1CN(C(=O)/C=C/C(F)F)CCN1c1nc(=O)n2c3c(c(-c4c(F)cc(F)cc4F)c(Cl)cc13)SCC2 [Example 120, (S,E)-9-chloro-7-(4-(4,4-difluorobut-2-enoyl)-2-methylpiperazin-1-yl)-10-(2,4,6-trifluorophenyl)-2,3-dihydro-5H-[1,4]thiazino[2,3,4-ij]quinazolin-5-one] |

| SMILES | % CAF @ 10 uM, 1h [%] |
| --- | --- |
| C=CC(=O)N1C2CC(=O)CC1CN(c1nc(=O)n3c4c(c(-c5ccc(F)cc5F)c(Cl)cc14)SCC3)C2 [Example 138, 7-(9-acryloyl-7-oxo-3,9-diazabicyclo[3.3.1]nonan-3-yl)-9-chloro-10-(2,4-difluorophenyl)-2,3-dihydro-5H-[1,4]thiazino[2,3,4-ij]quinazolin-5-one] | 95.8 |

same assay, conditions: 10 μM, 1 h; Table 4

| % CAF @ 10 μM, 1 h [%] | SMILES |
| --- | --- |
| 96 | C=CC(=O)N1CCN(c2nc(=O)n3c4c(c(-c5ccc(F)cc5F)c(C(F)(F)F)cc24)SC[C@@H]3CN2CCN(C3COC3)CC2)[C@@H](C)C1 [Example 352, (3S)-7-((S)-4-acryloyl-2-methylpiperazin-1-yl)-10-(2,4-difluorophenyl)-3-((4-(oxetan-3-yl)piperazin-1-yl)methyl)-9-(trifluoromethyl)-2H-[1,4]thiazino[2,3,4-ij]quinazolin-5(3H)-one] |
